Key:
Assay type in all cases: biochemical
[1] = target: CDK7/CycH/Mat1 (Homo sapiens, UniProt P50613); experiment: CDK7 Enzymatic Activity Assay (Lance Kinase Activity Assay, FRET); settings: CDK7/CycH/Mat1, 25 μM ATP final; class ranges; read-out: CDK7: IC50 [nM] for CDK7 inhibition
Summary of the method: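 Ulight-MBP peptide phosphorylation by CDK7/CycH/Mat1 in HEPES 50 mM pH 7.5, MgCl2, EGTA, DTT, Tween-20; 1 h at room temperature, then EDTA stop with Eu-anti-phospho-MBP antibody for 1 h and TR-FRET read. Compounds in 8-point 1:3 DMSO series; IC50 from sigmoidal dose-response fit.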

[2] = target: T1, CDK2/CycA (Homo sapiens, UniProt P24941); experiment: CDK2 Enzymatic Activity Assay (Lance Kinase Activity Assay, FRET); settings: Table 5B, class symbols per IC50 [nM] ranges of b581; read-out: CDK2: Selectivity of CDK7 inhibition over CDK2 inhibition
T1 construct: purchased Proqinase
Summary of the method: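 LANCE TR-FRET assay: CDK2/CycA phosphorylated ULight-MBP peptide in HEPES 50 mM pH 7.5 buffer with MgCl2, EGTA, DTT and Tween-20 for 1 h at room temperature. Eu-anti-phospho-MBP antibody with EDTA was then added for 1 h before reading. IC50 was fitted from 8-point, 1:3 sigmoidal dose-response curves.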

[3] = target: CDK9/Cyclin T1 (Homo sapiens, UniProt P50750); experiment: CDK9 Enzymatic Activity Assay (Lance Kinase Activity Assay, FRET); settings: Table 5B, class symbols per IC50 [nM] ranges of b581; read-out: CDK9: Selectivity of CDK7 inhibition over CDK9 inhibition
Summary of the method: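 CDK9/cyclin T1 phosphorylation of a ULight-MBP peptide was run for 1 h at room temperature in pH 7.5 HEPES buffer with MgCl2, EGTA, DTT and Tween-20. It was followed by 1 h with Eu-anti-phospho-MBP antibody (4 nM) in EDTA detection buffer. TR-FRET loss gave IC50 from 8-point, 1:3 sigmoidal dose-response curves.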

Sequence of CDK7/CycH/Mat1 (P50613 whole entry): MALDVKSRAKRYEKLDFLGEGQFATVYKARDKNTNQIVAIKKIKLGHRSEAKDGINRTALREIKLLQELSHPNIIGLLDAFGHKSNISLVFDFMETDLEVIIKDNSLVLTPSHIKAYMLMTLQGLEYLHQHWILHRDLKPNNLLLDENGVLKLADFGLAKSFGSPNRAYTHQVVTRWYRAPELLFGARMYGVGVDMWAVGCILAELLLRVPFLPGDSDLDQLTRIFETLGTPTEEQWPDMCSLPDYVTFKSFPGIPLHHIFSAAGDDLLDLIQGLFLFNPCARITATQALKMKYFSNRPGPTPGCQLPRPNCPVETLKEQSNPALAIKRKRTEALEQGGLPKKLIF
Sequence of CDK9/Cyclin T1 (P50750 whole entry): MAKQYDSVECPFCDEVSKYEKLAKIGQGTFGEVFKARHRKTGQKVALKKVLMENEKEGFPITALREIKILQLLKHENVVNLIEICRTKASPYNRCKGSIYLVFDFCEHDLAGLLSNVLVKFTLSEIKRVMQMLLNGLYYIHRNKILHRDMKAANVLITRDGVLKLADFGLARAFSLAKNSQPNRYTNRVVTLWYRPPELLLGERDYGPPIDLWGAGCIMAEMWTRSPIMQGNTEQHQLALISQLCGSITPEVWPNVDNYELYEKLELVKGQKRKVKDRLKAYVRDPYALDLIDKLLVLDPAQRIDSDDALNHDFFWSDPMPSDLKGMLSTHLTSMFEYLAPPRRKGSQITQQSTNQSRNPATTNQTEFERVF
Sequence of CDK9/Cyclin T1 (O60563 whole entry partner): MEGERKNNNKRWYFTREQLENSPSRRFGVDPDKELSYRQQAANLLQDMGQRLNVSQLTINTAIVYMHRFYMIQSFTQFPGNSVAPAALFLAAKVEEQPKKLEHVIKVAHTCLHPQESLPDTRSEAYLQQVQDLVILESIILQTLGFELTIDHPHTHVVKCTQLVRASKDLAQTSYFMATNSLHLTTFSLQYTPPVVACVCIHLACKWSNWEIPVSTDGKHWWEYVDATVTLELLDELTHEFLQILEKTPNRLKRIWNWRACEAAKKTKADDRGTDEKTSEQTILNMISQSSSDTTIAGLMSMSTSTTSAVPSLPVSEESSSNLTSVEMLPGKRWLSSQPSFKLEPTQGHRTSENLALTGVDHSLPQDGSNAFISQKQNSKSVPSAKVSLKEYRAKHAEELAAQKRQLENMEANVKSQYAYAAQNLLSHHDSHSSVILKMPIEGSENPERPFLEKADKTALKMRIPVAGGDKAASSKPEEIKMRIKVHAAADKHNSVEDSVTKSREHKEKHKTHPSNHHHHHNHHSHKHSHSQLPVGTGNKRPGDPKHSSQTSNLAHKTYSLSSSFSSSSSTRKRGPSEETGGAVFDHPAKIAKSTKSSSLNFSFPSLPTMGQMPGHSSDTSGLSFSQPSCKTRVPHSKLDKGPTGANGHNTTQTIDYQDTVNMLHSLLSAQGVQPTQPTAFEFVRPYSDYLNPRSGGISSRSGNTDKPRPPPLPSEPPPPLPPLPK

SMILES	IC50 [1]	IC50 [2]	IC50 [3]
CNC(=O)c1ccccc1CNc1nc(O[C@@H]2CCCNC2)nc2c(C(C)C)cnn12 [(VII-108), (R)-2-(((8-isopropyl-2-(piperidin-3-yloxy)pyrazolo[1,5-a][1,3,5]triazin-4-yl)amino)methyl)-N-methylbenzamide]	< 5 nM	50 to 500 nM	> 2500 nM
C#CC(C)NC(=O)c1ccccc1CNc1nc(O[C@@H]2CCCNC2)nc2c(C(C)C)cnn12 (stereo partly drawn) [(VII-109), N-(but-3-yn-2-yl)-2-(((8-isopropyl-2-((R)-piperidin-3-yloxy)pyrazolo[1,5-a][1,3,5]triazin-4-yl)amino)methyl)benzamide]	10 to 25 nM	> 2500 nM	> 2500 nM
CC(C)c1cnn2c(NCc3ccccc3NC(=O)NC3CCCCC3)nc(O[C@@H]3CCCNC3)nc12 [(VII-112), (R)-1-cyclohexyl-3-(2-(((8-isopropyl-2-(piperidin-3-yloxy)pyrazolo[1,5-a][1,3,5]triazin-4-yl)amino)methyl)phenyl)urea]	5 to 10 nM	> 2500 nM	> 2500 nM
CC(C)c1cnn2c(NCc3ccccc3NC(=O)NCc3ccccc3)nc(O[C@@H]3CCCNC3)nc12 [(VII-113), (R)-1-benzyl-3-(2-(((8-isopropyl-2-(piperidin-3-yloxy)pyrazolo[1,5-a][1,3,5]triazin-4-yl)amino)methyl)phenyl)urea]	10 to 25 nM	> 2500 nM	> 2500 nM
Cc1ccc(CNc2nc(O[C@@H]3CCCNC3)nc3c(C(C)C)cnn23)c(OCC(C)C)c1 [(VII-115), (R)-N-(2-isobutoxy-4-methylbenzyl)-8-isopropyl-2-(piperidin-3-yloxy)pyrazolo[1,5-a][1,3,5]triazin-4-amine]	> 25 nM	> 2500 nM	> 2500 nM
CC(C)c1cnn2c(NCc3ccccc3SC3CCCC3)nc(O[C@@H]3CCCNC3)nc12 [(VII-119), (R)-N-(2-(cyclopentylthio)benzyl)-8-isopropyl-2-(piperidin-3-yloxy)pyrazolo[1,5-a][1,3,5]triazin-4-amine]	> 25 nM	500 to 2500 nM	> 2500 nM
CC(C)c1cnn2c(NCc3ccccc3-n3cccn3)nc(OC3C=CCNC3)nc12 (stereo not drawn) [(VII-120), N-(2-(1H-pyrazol-1-yl)benzyl)-8-isopropyl-2-((1,2,3,6-tetrahydropyridin-3-yl)oxy)pyrazolo[1,5-a][1,3,5]triazin-4-amine]	5 to 10 nM	50 to 500 nM	> 2500 nM
CC(C)c1cnn2c(NCc3ccccc3-n3cccn3)nc(OC3CNCCOC3)nc12 (stereo not drawn) [(VII-122), 2-((1,4-oxazepan-6-yl)oxy)-N-(2-(1H-pyrazol-1-yl)benzyl)-8-isopropylpyrazolo[1,5-a][1,3,5]triazin-4-amine]	10 to 25 nM	500 to 2500 nM	> 2500 nM
CCNC(=O)Oc1ccccc1CNc1nc(O[C@@H]2CCCNC2)nc2c(C(C)C)cnn12 [(VII-146), (R)-2-(((8-isopropyl-2-(piperidin-3-yloxy)pyrazolo[1,5-a][1,3,5]triazin-4-yl)amino)methyl)phenyl ethylcarbamate]	10 to 25 nM	> 2500 nM	> 2500 nM
CC(C)c1cnn2c(NCc3ccccc3OS(C)(=O)=O)nc(O[C@@H]3CCCNC3)nc12 [(VII-147), (R)-2-(((8-isopropyl-2-(piperidin-3-yloxy)pyrazolo[1,5-a][1,3,5]triazin-4-yl)amino)methyl)phenyl methanesulfonate]	5 to 10 nM	50 to 500 nM	> 2500 nM
CC(C)COC(=O)Oc1ccccc1CNc1nc(O[C@@H]2CCCNC2)nc2c(C(C)C)cnn12 [(VII-149), (R)-isobutyl (2-(((8-isopropyl-2-(piperidin-3-yloxy)pyrazolo[1,5-a][1,3,5]triazin-4-yl)amino)methyl)phenyl) carbonate]	10 to 25 nM	> 2500 nM	> 2500 nM
CC(C)c1cnn2c(NCc3ccccc3N=S(C)(C)=O)nc(O[C@@H]3CCCNC3)nc12 [(VII-151), N-(2-(((8-isopropyl-2-((R)-piperidin-3-yloxy)pyrazolo[1,5-a][1,3,5]triazin-4-yl)amino)methyl)phenyl)-S,S-dimethylsulfoximine]	< 5 nM	500 to 2500 nM	> 2500 nM

Second part, the compound after the results:

IC50 [1]	IC50 [2]	IC50 [3]	SMILES
< 5 nM	50 to 500 nM	> 2500 nM	CC(C)c1cnn2c(NCc3ccccc3S(=O)(=O)N3CCCC3)nc(O[C@@H]3CCCNC3)nc12 [(VII-106), (R)-8-isopropyl-2-(piperidin-3-yloxy)-N-(2-(pyrrolidin-1-ylsulfonyl)benzyl)pyrazolo[1,5-a][1,3,5]triazin-4-amine]
< 5 nM	50 to 500 nM	> 2500 nM	CC(C)c1cnn2c(NCc3ccccc3S(=O)(=O)N3CCN(C)CC3)nc(O[C@@H]3CCCNC3)nc12 [(VII-107), (R)-8-isopropyl-N-(2-((4-methylpiperazin-1-yl)sulfonyl)benzyl)-2-(piperidin-3-yloxy)pyrazolo[1,5-a][1,3,5]triazin-4-amine]
< 5 nM	> 2500 nM	> 2500 nM	CCCNC(=O)Nc1ccccc1CNc1nc(O[C@@H]2CCCNC2)nc2c(C(C)C)cnn12 [(VII-110), (R)-1-(2-(((8-isopropyl-2-(piperidin-3-yloxy)pyrazolo[1,5-a][1,3,5]triazin-4-yl)amino)methyl)phenyl)-3-propylurea]
< 5 nM	> 2500 nM	> 2500 nM	CCNC(=O)Nc1ccccc1CNc1nc(O[C@@H]2CCCNC2)nc2c(C(C)C)cnn12 [(VII-114), (R)-1-ethyl-3-(2-(((8-isopropyl-2-(piperidin-3-yloxy)pyrazolo[1,5-a][1,3,5]triazin-4-yl)amino)methyl)phenyl)urea]
10 to 25 nM	50 to 500 nM	500 to 2500 nM	CC(C)c1cnn2c(NCc3cccc4c3OCCCO4)nc(O[C@@H]3CCCNC3)nc12 [(VII-116), (R)-N-((3,4-dihydro-2H-benzo[b][1,4]dioxepin-6-yl)methyl)-8-isopropyl-2-(piperidin-3-yloxy)pyrazolo[1,5-a][1,3,5]triazin-4-amine]
> 25 nM	> 2500 nM	> 2500 nM	CC(C)c1cnn2c(NCc3ccccc3C3=CCCCC3)nc(O[C@@H]3CCCNC3)nc12 [(VII-117), (R)-8-isopropyl-2-(piperidin-3-yloxy)-N-((2′,3′,4′,5′-tetrahydro-[1,1′-biphenyl]-2-yl)methyl)pyrazolo[1,5-a][1,3,5]triazin-4-amine]
5 to 10 nM	50 to 500 nM	50 to 500 nM	CSc1ccccc1CNc1nc(O[C@@H]2CCCNC2)nc2c(C(C)C)cnn12 [(VII-118), (R)-8-isopropyl-N-(2-(methylthio)benzyl)-2-(piperidin-3-yloxy)pyrazolo[1,5-a][1,3,5]triazin-4-amine]
< 5 nM	> 2500 nM	> 2500 nM	CC(C)c1cnn2c(NCc3ccccc3-n3cccn3)nc(OC3COC4(CCNCC4)C3)nc12 (stereo not drawn) [(VII-121), 2-(1-oxa-8-azaspiro[4.5]decan-3-yloxy)-N-(2-(1H-pyrazol-1-yl)benzyl)-8-isopropylpyrazolo[1,5-a][1,3,5]triazin-4-amine]
< 5 nM	50 to 500 nM	> 2500 nM	CC(C)c1cnn2c(NCc3ccccc3-n3cccn3)nc(OC3C[C@H]4CNC[C@@H]34)nc12 (stereo partly drawn) [(VII-123), N-(2-(1H-pyrazol-1-yl)benzyl)-2-((1R,5S)-3-azabicyclo[3.2.0]heptan-6-yloxy)-8-isopropylpyrazolo[1,5-a][1,3,5]triazin-4-amine]
> 25 nM	> 2500 nM	> 2500 nM	CC(C)c1cnn2c(NCc3ccccc3-n3cccn3)nc(OCCN3CCNCC3)nc12 [(VII-124), N-(2-(1H-pyrazol-1-yl)benzyl)-8-isopropyl-2-(2-(piperazin-1-yl)ethoxy)pyrazolo[1,5-a][1,3,5]triazin-4-amine]
> 25 nM	> 2500 nM	> 2500 nM	CC(C)c1cnn2c(NCc3ccccc3C3CCCC3)nc(O[C@@H]3CCCNC3)nc12 [(VII-142), (R)-N-(2-cyclopentylbenzyl)-8-isopropyl-2-(piperidin-3-yloxy)pyrazolo[1,5-a][1,3,5]triazin-4-amine]
10 to 25 nM	500 to 2500 nM	500 to 2500 nM	CC(=O)Oc1ccccc1CNc1nc(O[C@@H]2CCCNC2)nc2c(C(C)C)cnn12 [(VII-145), (R)-2-(((8-isopropyl-2-(piperidin-3-yloxy)pyrazolo[1,5-a][1,3,5]triazin-4-yl)amino)methyl)phenyl acetate]
< 5 nM	50 to 500 nM	50 to 500 nM	CC(C)c1cnn2c(NCc3ccccc3OS(=O)C(C)(C)C)nc(O[C@@H]3CCCNC3)nc12 (stereo partly drawn) [(VII-148), 2-(((8-isopropyl-2-((R)-piperidin-3-yloxy)pyrazolo[1,5-a][1,3,5]triazin-4-yl)amino)methyl)phenyl 2-methylpropane-2-sulfinate]

Source: US9567345B2, “Pharmaceutically active pyrazolo-triazine derivatives” (LEAD DISCOVERY CENTER GMBH, priority 2012, dated 2017)
